According to the CheMixHub viscosity set:

Assay: xn = mol fraction of the nth substance listed

CCNc1ccccc1 + CCCCCCO
viscosity [mPa·s], 101 kPa
Conditions	303.15 K	308.15 K	313.15 K
x1 = 0.0815	3.513	3.35	3.189
x1 = 0.1812	3.243	3.069	2.9
x1 = 0.2501	3.07	2.889	2.719
x1 = 0.3121	2.922	2.736	2.565
x1 = 0.3956	2.737	2.546	2.374
x1 = 0.4652	2.594	2.399	2.227
x1 = 0.5285	2.47	2.273	2.101
x1 = 0.6124	2.318	2.119	1.947
x1 = 0.6758	2.21	2.01	1.84
x1 = 0.7415	2.105	1.904	1.735
x1 = 0.8012	2.014	1.813	1.647
x1 = 0.8652	1.922	1.722	1.557
x1 = 0.9114	1.857	1.659	1.496

ClCCCl + CCCCCCO
303.15 K, 101 kPa
Conditions	viscosity [mPa·s]
x1 = 0.1515	2.572
x1 = 0.302	1.864
x1 = 0.5095	1.235
x1 = 0.6031	1.047
x1 = 0.7397	0.9
x1 = 0.9017	0.73

COCC(C)OCC(C)OC (stereo unspecified) + CCCCCO
Conditions	viscosity [mPa·s]
298.15 K, 101 kPa, x1 = 0.4941	1.345

ClCCCl + CCCCCO
303.15 K, 101 kPa
Conditions	viscosity [mPa·s]
x1 = 0.1509	2.002
x1 = 0.3002	1.472
x1 = 0.4539	1.111
x1 = 0.6003	0.906
x1 = 0.7472	0.777
x1 = 0.8986	0.706

ClCCl + CCCCCO
298.15 K, 101 kPa
Conditions	viscosity [mPa·s]
x2 = 0.0966	0.7741
x2 = 0.194	1.097
x2 = 0.2921	1.391
x2 = 0.3909	1.669
x2 = 0.4905	1.93
x2 = 0.5908	2.182
x2 = 0.6919	2.437
x2 = 0.7938	2.688
x2 = 0.8965	2.927

ClCCl + CCCCN
viscosity [mPa·s], 101 kPa
Conditions	x2 = 0.102	x2 = 0.1371	x2 = 0.2306	x2 = 0.3081	x2 = 0.435	x2 = 0.5159	x2 = 0.5926	x2 = 0.6971	x2 = 0.8192	x2 = 0.9041
293.15 K	0.441	0.443	0.448	0.452	0.46	0.466	0.471	0.477	0.486	0.493
298.15 K	0.418	0.421	0.425	0.427	0.434	0.439	0.443	0.446	0.454	0.457
303.15 K	0.401	0.403	0.406	0.409	0.414	0.417	0.42	0.424	0.429	0.433
308.15 K	0.385	0.386	0.39	0.392	0.395	0.397	0.4	0.402	0.405	0.408

CCC(C)Br (stereo unspecified) + CCCCO
viscosity [mPa·s], 101.3 kPa
Conditions	x1 = 0.1031	x1 = 0.2031	x1 = 0.3016	x1 = 0.4044	x1 = 0.5054	x1 = 0.5983	x1 = 0.7019	x1 = 0.8026	x1 = 0.9
298.15 K	2.035	1.634	1.325	1.097	0.9278	0.8012	0.7037	0.6308	0.5835
313.15 K	1.426	1.174	0.9794	0.8345	0.7206	0.6389	0.5736	0.523	0.4876

CCNc1ccccc1 + CCCCO
303.15 K, 101 kPa
Conditions	viscosity [mPa·s]
x1 = 0.0702	2.203
x1 = 0.1296	2.187
x1 = 0.1901	2.173
x1 = 0.2568	2.154
x1 = 0.3204	2.132
x1 = 0.3725	2.114
x1 = 0.4414	2.085
x1 = 0.5136	2.047
x1 = 0.5841	2.007
x1 = 0.6525	1.97
x1 = 0.7225	1.926
x1 = 0.7954	1.873
x1 = 0.8741	1.819

ClCCCl + CCCCO
viscosity [mPa·s], 101 kPa
Conditions	x2 = 0.0969	x2 = 0.2052	x2 = 0.3178	x2 = 0.4683	x2 = 0.5618	x2 = 0.6768	x2 = 0.856
303.15 K	0.7121	0.7449	0.8081	0.9418	1.062	1.272	1.744
313.15 K	0.6205	0.6427	0.692	0.7892	0.8734	1.036	1.378
323.15 K	0.5584	0.571	0.6061	0.6791	0.7447	0.8711	1.123

ClCCl + CCCCO
303.15 K, 101.3 kPa
Conditions	viscosity [mPa·s]
x2 = 0.036	0.4023
x2 = 0.0601	0.4082
x2 = 0.1127	0.4291
x2 = 0.1672	0.4596
x2 = 0.3142	0.5767
x2 = 0.4391	0.7209
x2 = 0.5585	0.9132
x2 = 0.6635	1.143
x2 = 0.7658	1.428
x2 = 0.8429	1.684
x2 = 0.9	1.89
x2 = 0.9566	2.105

CC(=O)O + CCCCOC(C)=O
viscosity [mPa·s], 101 kPa
Conditions	298.15 K	313.15 K
x2 = 0.1025	1.003	0.811
x2 = 0.2035	0.947	0.767
x2 = 0.2989	0.887	0.724
x2 = 0.3998	0.842	0.685
x2 = 0.4907	0.811	0.671
x2 = 0.6449	0.77	0.63
x2 = 0.8015	0.729	0.599
x2 = 0.8705	0.726	0.589
x2 = 0.8886	0.723	0.592
x2 = 0.9096	0.712	0.583
x2 = 0.9315	0.698	0.58
x2 = 0.9427	0.698	0.58
x2 = 0.9605	0.696	0.574
x2 = 0.9779	0.686	0.563

CCNc1ccccc1 + CCCCOCCO
viscosity [mPa·s], 101.3 kPa
Conditions	x2 = 0.1017	x2 = 0.2027	x2 = 0.3026	x2 = 0.398	x2 = 0.5004	x2 = 0.5947	x2 = 0.701	x2 = 0.7971	x2 = 0.8933
298 K	2.077	2.172	2.259	2.361	2.486	2.573	2.686	2.758	2.786
303 K	1.774	1.855	1.929	2.039	2.14	2.214	2.313	2.38	2.404
308 K	1.59	1.662	1.725	1.801	1.889	1.961	2.048	2.111	2.145
313 K	1.43	1.498	1.537	1.615	1.693	1.746	1.824	1.883	1.91
318 K	1.298	1.358	1.383	1.443	1.51	1.552	1.616	1.674	1.696

ClCCl + CCCCOCCO
298.15 K, 101.3 kPa
Conditions	viscosity [mPa·s]
x1 = 0.0185	2.77
x2 = 0.0035	0.408
x2 = 0.0112	0.413
x2 = 0.0303	0.43
x2 = 0.0521	0.451
x2 = 0.1008	0.503
x2 = 0.1533	0.578
x2 = 0.2175	0.671
x2 = 0.293	0.807
x2 = 0.362	0.943
x2 = 0.4346	1.11
x2 = 0.5707	1.482
x2 = 0.6642	1.753
x2 = 0.7875	2.148
x2 = 0.9049	2.525

ClCCl + CCCCn1cc[n+](C)c1.F[B-](F)(F)F
Conditions	viscosity [mPa·s]
298.15 K, 101 kPa, x1 = 0.1	84.5

ClCCl + CCCCn1cc[n+](C)c1.F[P-](F)(F)(F)(F)F
298.15 K, 101 kPa
Conditions	viscosity [mPa·s]
x1 = 0.2451	88.7
x1 = 0.6462	9.51

COCC(C)OCC(C)OC (stereo unspecified) + CCCO
298.15 K, 101 kPa
Conditions	viscosity [mPa·s]
x1 = 0.0008	1.955
x1 = 0.0409	1.775

ClCCCl + CCCO
101 kPa
Conditions	viscosity [mPa·s]
293.15 K, x2 = 0.9052	1.795
298.15 K, x2 = 0.614	1.035
303.15 K, x2 = 0.1182	0.6969
303.15 K, x2 = 0.2163	0.6888
303.15 K, x2 = 0.5579	0.9007
303.15 K, x2 = 0.6721	1.034
303.15 K, x2 = 0.836	1.328
313.15 K, x2 = 0.1182	0.6089
313.15 K, x2 = 0.2163	0.6167
313.15 K, x2 = 0.326	0.6293
313.15 K, x2 = 0.5579	0.7563
313.15 K, x2 = 0.6721	0.8514
313.15 K, x2 = 0.836	1.071
323.15 K, x2 = 0.1182	0.5483
323.15 K, x2 = 0.2163	0.5488
323.15 K, x2 = 0.326	0.5542
323.15 K, x2 = 0.5579	0.6484
323.15 K, x2 = 0.6721	0.721
323.15 K, x2 = 0.836	0.8872

ClCCl + CCCO
Conditions	viscosity [mPa·s]
298.15 K, 101 kPa, x2 = 0.05	0.48
298.15 K, 101 kPa, x2 = 0.1	0.535
298.15 K, 101 kPa, x2 = 0.1002	0.44
298.15 K, 101 kPa, x2 = 0.15	0.588
298.15 K, 101 kPa, x2 = 0.1991	0.487
298.15 K, 101 kPa, x2 = 0.2	0.639
298.15 K, 101 kPa, x2 = 0.2496	0.496
298.15 K, 101 kPa, x2 = 0.25	0.689
298.15 K, 101 kPa, x2 = 0.2978	0.528
298.15 K, 101 kPa, x2 = 0.3	0.74
298.15 K, 101 kPa, x2 = 0.35	0.792
298.15 K, 101 kPa, x2 = 0.3938	0.6
298.15 K, 101 kPa, x2 = 0.4	0.846
298.15 K, 101 kPa, x2 = 0.45	0.904
298.15 K, 101 kPa, x2 = 0.4603	0.668
298.15 K, 101 kPa, x2 = 0.498	0.716
298.15 K, 101 kPa, x2 = 0.5	0.966
298.15 K, 101 kPa, x2 = 0.55	1.032
298.15 K, 101 kPa, x2 = 0.589	0.843
298.15 K, 101 kPa, x2 = 0.6	1.104
298.15 K, 101 kPa, x2 = 0.65	1.182
298.15 K, 101 kPa, x2 = 0.6943	1.043
298.15 K, 101 kPa, x2 = 0.7	1.266
298.15 K, 101 kPa, x2 = 0.75	1.357
298.15 K, 101 kPa, x2 = 0.7977	1.289
298.15 K, 101 kPa, x2 = 0.8	1.455
298.15 K, 101 kPa, x2 = 0.85	1.56
298.15 K, 101 kPa, x2 = 0.8955	1.57
298.15 K, 101 kPa, x2 = 0.9	1.673
298.15 K, 101 kPa, x2 = 0.95	1.794
303.15 K, 101.3 kPa, x2 = 0.0434	0.401
303.15 K, 101.3 kPa, x2 = 0.0863	0.4085
303.15 K, 101.3 kPa, x2 = 0.1371	0.423
303.15 K, 101.3 kPa, x2 = 0.1943	0.445
303.15 K, 101.3 kPa, x2 = 0.2863	0.4936
303.15 K, 101.3 kPa, x2 = 0.3859	0.5655
303.15 K, 101.3 kPa, x2 = 0.4983	0.6748
303.15 K, 101.3 kPa, x2 = 0.5806	0.7794
303.15 K, 101.3 kPa, x2 = 0.7402	1.059
303.15 K, 101.3 kPa, x2 = 0.828	1.257
303.15 K, 101.3 kPa, x2 = 0.9016	1.447
303.15 K, 101.3 kPa, x2 = 0.9307	1.606
303.15 K, 101.3 kPa, x2 = 0.9459	1.57
303.15 K, 101.3 kPa, x2 = 0.95	1.643

CCC[N+](C)(C)C.O=S(=O)([N-]S(=O)(=O)C(F)(F)F)C(F)(F)F + CCC[N+]1(C)CCCC1.O=S(=O)([N-]S(=O)(=O)C(F)(F)F)C(F)(F)F
viscosity [mPa·s], 101.3 kPa
Conditions	x1 = 0.2	x1 = 0.4	x1 = 0.6	x1 = 0.8
293.15 K	78.4	81.2	88.3	93.6
298.15 K	62.8	64.9	–	73.8
303.15 K	51.1	52.5	56.3	59.2

CCC[N+](C)(C)C.O=S(=O)([N-]S(=O)(=O)C(F)(F)F)C(F)(F)F + CCC[N+]1(C)CCCCC1.O=S(=O)([N-]S(=O)(=O)C(F)(F)F)C(F)(F)F
101.3 kPa
Conditions	viscosity [mPa·s]
298.15 K, x1 = 0.8	88.1
303.15 K, x1 = 0.8	69.7
308.15 K, x1 = 0.2	78.3
308.15 K, x1 = 0.6	63.6
308.15 K, x1 = 0.8	56.2
313.15 K, x1 = 0.2	62.4
313.15 K, x1 = 0.4	56.9
313.15 K, x1 = 0.6	51.5
318.15 K, x1 = 0.2	50.5
